Positions count from the first letter of the chain named. Where “and” joins values, the source holds several entries; their conditions need not be identical. Equal values may be shown once. Read-outs that look alike come from different tables or passages of the source.
Key:
human SHP2-FL F285S = target: T1, human SHP2-FL F285S (Homo sapiens, UniProt Q06124, F285S); experiment: SHP2 allosteric inhibition assay (DiFMUP), F285S; assay type: biochemical
T1 sequence (Q06124 1-593 F285S): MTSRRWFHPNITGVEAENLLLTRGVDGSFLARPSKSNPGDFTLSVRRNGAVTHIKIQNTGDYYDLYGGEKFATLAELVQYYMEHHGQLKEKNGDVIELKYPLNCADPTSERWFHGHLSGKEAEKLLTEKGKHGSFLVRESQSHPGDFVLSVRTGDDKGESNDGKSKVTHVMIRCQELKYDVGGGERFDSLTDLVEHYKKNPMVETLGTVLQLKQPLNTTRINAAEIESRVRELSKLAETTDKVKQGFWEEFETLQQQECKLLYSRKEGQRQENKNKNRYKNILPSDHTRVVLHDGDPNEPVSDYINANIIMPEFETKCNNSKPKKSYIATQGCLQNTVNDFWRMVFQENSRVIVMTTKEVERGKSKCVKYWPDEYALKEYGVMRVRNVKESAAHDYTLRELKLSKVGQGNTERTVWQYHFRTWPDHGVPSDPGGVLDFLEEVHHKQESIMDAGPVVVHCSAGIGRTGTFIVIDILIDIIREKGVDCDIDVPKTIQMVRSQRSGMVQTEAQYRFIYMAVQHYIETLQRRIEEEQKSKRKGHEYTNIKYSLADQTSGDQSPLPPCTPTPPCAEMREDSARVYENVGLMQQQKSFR
Experimental: (§1) Full-length SHP2 is allosterically activated through binding of bis-tyrosyl-phorphorylated peptides to its Src Homology 2 (SH2) domains. The latter activation step leads to the release of the auto-inhibitory interface of SHP2, which in turn renders the SHP2 protein tyrosine phosphatase (PTP) active and available for substrate recognition and reaction catalysis. The catalytic activity of SHP2 was monitored using the surrogate substrate DiFMUP in a prompt fluorescence assay format.
(§2) […] […] 50 μl stop solution (0.1 mM sodium pervanadate) was added to each well, the plate was shaken briefly to mix, and read in endpoint mode on a SpectraMax M5 plate reader (Molecular Devices) using excitation and emission wavelengths of 340 nm and 450 nm. Data was imported into GraphPad Prism. Plots of fluorescence intensity vs. log Molar [compound] were created and modeled with a 3-parameter sigmoidal concentration response equation in order to estimate IC50.
(§3) Reactions were then allowed to proceed for 30 minutes and stopped by the addition of a phosphatase inhibitor, sodium pervanadate. De-phosphorylation of DiFMUP results in production of a fluorescent product. Product fluorescence was determined and plotted as a function of compound concentration in order to determine the IC50 for each compound on each mutant using a four parameter sigmoidal dose response function in Prism (GraphPad).
(§4) NsCs mimics the role of the cytosolic domain of a protein tyrosine kinase in this model system.

human SHP2-FL S502P = target: T2, human SHP2-FL S502P (Homo sapiens, UniProt Q06124, S502P); experiment: SHP2 allosteric inhibition assay (DiFMUP), S502P; assay type: biochemical
T2 sequence (Q06124 1-593 S502P): T1 sequence (Q06124 1-593 F285S) with S285F, S502P
Experimental: as §1, §2, §3, §4

SHP2 G60V = target: T3, SHP2 G60V (Homo sapiens, UniProt Q06124, G60V); experiment: EGF-induced pERK AlphaLISA in T-REx-293-SHP2 cells, G60V; assay type: cell-based; settings: Variant G60V
T3 construct: expressed in transfected cells; host or cells: Flp-In T-REx-293 (T-REx-293-SHP2)
Experimental: An experimental system was creating to test the activity of SHP2 mutants on an isogenic background (FIG. 6). The Flp-In T-REx-293 cell line was obtained from Gibco® and cultivated in high glucose DMEM™ containing 2 mM L-glutamine (Hyclone®), supplemented with 10% FBS (Hyclone®), 1% penicillin/streptomycin (Gibco®), 100 μg/mL Zeocin™ (Gibco®), and 15 μg/mL blasticidin (Gibco®) in a humidified cell culture incubator at 37° C., 5% CO2.
Wild type or mutant SHP2 variants were synthesized and subcloned into the pcDNA5/FRT/TO vector (ThermoFisher). Plasmids were co-transfected with the pOG44 Flp recombinase expression plasmid (ThermoFisher®) into Flp-In T-REx-293 cells using X-tremegene 9 DNA transfection reagent (Sigma®), according to the manufacturer's instructions. […]
For the final 5 minutes of drug treatment, cells were stimulated with 50 ng/mL Epidermal Growth Factor (Sigma®). […] Samples were read using an EnVision Multilabel Plate Reader (Perkin Elmer®) using standard AlphaLISA settings. Assay data was plotted and EC50 values were determined using four-parameter concentration-response model in GraphPad Prism 7. […]

SMILES	IC50 (human SHP2-FL F285S; IC50 (nM), SHP2 F285S 0.5 μM NsCs peptide (Activated), human SHP2-FL F285S, 0.5 μM NsCs peptide (activated))	IC50 (human SHP2-FL F285S; human SHP2-FL F285S alone, no peptide (non-activated), read-out: IC50 (nM), SHP2 F285S No Peptide Control (Non-Activated))	IC50 (human SHP2-FL F285S; human SHP2-FL F285S alone, no peptide (non-activated), read-out: pIC50, SHP2 F285S No Peptide Control (Non-Activated) (converted))	IC50 (human SHP2-FL F285S; pIC50, SHP2 F285S 0.5 μM NsCs peptide (Activated), human SHP2-FL F285S, 0.5 μM NsCs peptide (activated))	IC50 (human SHP2-FL S502P; IC50 (nM), SHP2 S502P 0.5 μM NsCs peptide (Activated), human SHP2-FL S502P in presence of 0.5 μM NsCs peptide (activated)) [nM]	IC50 (human SHP2-FL S502P; human SHP2-FL S502P alone, no peptide (non-activated), read-out: IC50 (nM), SHP2 S502P No Peptide Control (Non-Activated))	IC50 (human SHP2-FL S502P; human SHP2-FL S502P alone, no peptide (non-activated), read-out: pIC50, SHP2 S502P No Peptide Control (Non-Activated) (converted))	IC50 (human SHP2-FL S502P; pIC50, SHP2 S502P 0.5 μM NsCs peptide (Activated), human SHP2-FL S502P in presence of 0.5 μM NsCs peptide (activated)) [nM]	Biochemical sensitivity (human SHP2-FL F285S; Variant F285S)	Biochemical sensitivity (human SHP2-FL S502P; Variant S502P)	Cellular sensitivity (SHP2 G60V)
Nc1nc(N2CCC3(CCC[C@H]3N)CC2)cnc1Sc1ccnc(Cl)c1Cl [Compound 1]	3.76 nM and 9.08 nM and 8.38 nM and 15.1 nM	1.57 nM and 1.55 nM and 1.04 nM and 1.19 nM	1.55 nM and 1.05 nM and 1.2 nM	3.72 nM and 9.12 nM and 8.32 nM and 15.1 nM	> 10000	237 nM and 227 nM and 221 nM and 308 nM	234 nM and 229 nM and 219 nM and 309 nM	> 10000	–	–	–
Cc1nc(N2CCC3(CC2)CO[C@@H](C)[C@H]3N)c(CO)nc1-c1cccc(Cl)c1Cl [Compound B]	–	–	–	–	–	–	–	–	yes (Sensitive if IC50 < 2000 nM)	no (Sensitive if IC50 < 2000 nM)	no (Sensitive if IC50 < 2000 nM)

Source: US20210154190A1, “SHP2 INHIBITOR COMPOSITIONS AND METHODS FOR TREATING CANCER” (Revolution Medicines, Inc., priority 2018, published 2021)
